Source: patent US12440484B2, “1,3,4-oxadiazole homophthalimide derivative compounds as histone deacetylase 6 inhibitor, and the pharmaceutical composition comprising the same” (Chong Kun Dang Pharmaceutical Corp., priority 2019, dated 2025)

Key:
HDAC1 = HDAC1 (Homo sapiens (Human), UniProt Q13547); experiment: HDAC enzyme activity inhibition (in vitro), HDAC1 Fluorimetric Drug Discovery Assay Kit; format: biochemical; conditions: samples at 100, 1000 and 10000 nM; 37° C. 60 minutes; fluorescence Ex 390, Em 460
HDAC6 human recombinant = HDAC6 human recombinant (Homo sapiens (Human), UniProt Q9UBN7); experiment: HDAC enzyme activity inhibition (in vitro), HDAC6 assay; format: biochemical; conditions: samples at 0.1, 1, 10, 100 and 1000 nM; 37° C. 60 minutes; fluorescence Ex 390, Em 460
HDAC6 human recombinant, sequence (Q9UBN7 whole entry): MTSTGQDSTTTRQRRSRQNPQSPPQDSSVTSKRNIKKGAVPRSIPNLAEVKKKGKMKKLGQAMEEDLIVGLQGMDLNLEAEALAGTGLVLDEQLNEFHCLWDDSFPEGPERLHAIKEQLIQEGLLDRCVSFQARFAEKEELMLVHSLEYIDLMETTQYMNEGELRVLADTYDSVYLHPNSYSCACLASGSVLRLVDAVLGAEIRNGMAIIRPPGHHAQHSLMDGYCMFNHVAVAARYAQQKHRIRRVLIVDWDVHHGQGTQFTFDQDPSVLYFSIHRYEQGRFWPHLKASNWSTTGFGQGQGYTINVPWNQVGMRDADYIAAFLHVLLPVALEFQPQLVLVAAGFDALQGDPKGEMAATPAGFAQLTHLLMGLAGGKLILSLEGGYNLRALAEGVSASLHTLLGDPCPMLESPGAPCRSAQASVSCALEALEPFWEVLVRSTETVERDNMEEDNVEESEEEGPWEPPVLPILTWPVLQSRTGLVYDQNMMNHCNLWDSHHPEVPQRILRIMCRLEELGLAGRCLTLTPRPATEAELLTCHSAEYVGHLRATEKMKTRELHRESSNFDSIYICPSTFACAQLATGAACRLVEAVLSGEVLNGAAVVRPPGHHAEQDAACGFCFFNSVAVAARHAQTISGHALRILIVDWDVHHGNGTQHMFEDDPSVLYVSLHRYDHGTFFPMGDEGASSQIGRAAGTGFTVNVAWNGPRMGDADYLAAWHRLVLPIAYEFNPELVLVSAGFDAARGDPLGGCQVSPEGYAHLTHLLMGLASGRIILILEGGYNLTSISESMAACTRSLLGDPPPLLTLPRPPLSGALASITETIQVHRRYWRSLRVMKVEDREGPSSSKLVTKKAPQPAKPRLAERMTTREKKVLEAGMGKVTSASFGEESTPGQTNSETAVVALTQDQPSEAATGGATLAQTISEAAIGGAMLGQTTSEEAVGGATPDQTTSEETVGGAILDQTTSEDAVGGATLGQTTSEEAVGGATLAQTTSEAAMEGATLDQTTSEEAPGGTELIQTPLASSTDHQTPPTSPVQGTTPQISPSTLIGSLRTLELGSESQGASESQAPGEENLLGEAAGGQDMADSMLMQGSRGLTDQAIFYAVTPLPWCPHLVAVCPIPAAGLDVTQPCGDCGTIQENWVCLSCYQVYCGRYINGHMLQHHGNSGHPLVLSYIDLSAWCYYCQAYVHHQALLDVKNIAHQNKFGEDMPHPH

HDAC1, sequence (Q13547 whole entry): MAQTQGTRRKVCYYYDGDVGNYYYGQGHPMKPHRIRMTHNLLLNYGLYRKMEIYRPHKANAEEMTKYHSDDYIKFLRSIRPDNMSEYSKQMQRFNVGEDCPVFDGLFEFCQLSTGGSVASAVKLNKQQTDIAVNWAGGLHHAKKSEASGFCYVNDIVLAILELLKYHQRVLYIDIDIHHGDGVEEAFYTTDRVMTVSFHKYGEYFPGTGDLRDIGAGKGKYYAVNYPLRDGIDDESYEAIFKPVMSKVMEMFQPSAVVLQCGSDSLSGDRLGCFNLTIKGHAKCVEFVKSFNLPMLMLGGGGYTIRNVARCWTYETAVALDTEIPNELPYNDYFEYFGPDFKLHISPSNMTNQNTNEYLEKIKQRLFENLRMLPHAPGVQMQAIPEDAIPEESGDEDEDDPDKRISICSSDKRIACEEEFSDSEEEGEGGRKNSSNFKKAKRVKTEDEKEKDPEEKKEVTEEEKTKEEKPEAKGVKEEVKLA

Row | IC50 (HDAC1) | IC50 (HDAC6 human recombinant) | SMILES
1 | > 10000 nM | 561 nM | O=C1c2ccccc2C(=O)N1Cc1ccc(-c2nnc(C(F)F)o2)cc1F [Compound 2, 2-(4-(5-(difluoromethyl)-1,3,4-oxadiazole-2-yl)-2-fluorobenzyl)isoindoline-1,3-dione]
2 | > 10000 nM | 318 nM | O=C1c2ccccc2C2(CCC2)C(=O)N1Cc1ccc(-c2nnc(C(F)F)o2)cc1F [Compound 3, 2′-(4-(5-(difluoromethyl)-1,3,4-oxadiazole-2-yl)-2-fluorobenzyl)-1′H-spiro[cyclobutane-1,4′-isoquinoline]-1′,3′(2′H)-dione]
3 | > 10000 nM | 32 nM | O=C1c2ccccc2C2(CCC2)C(=O)N1Cc1ccc(-c2nnc(C(F)F)o2)cn1 [Compound 4, 2′-((5-(5-(difluoromethyl)-1,3,4-oxadiazole-2-yl)pyridine-2-yl)methyl)-1′H-spiro[cyclobutane-1,4′-isoquinoline]-1′,3′(2′H)-dione]
4 | > 10000 nM | 647 nM | CC1(C)C(=O)N(Cc2ccc(-c3nnc(C(F)F)o3)cc2)C(=O)c2ccccc21 [Compound 6, 2-(4-(5-(difluoromethyl)-1,3,4-oxadiazole-2-yl)benzyl)-4,4-dimethylisoquinoline-1,3(2H,4H)-dione]
5 | > 10000 nM | 53 nM | O=c1[nH]c2ccccc2c(=O)n1Cc1ccc(-c2nnc(C(F)F)o2)cn1 [Compound 14, 3-((5-(5-(difluoromethyl)-1,3,4-oxadiazole-2-yl)pyridine-2-yl)methyl)quinazoline-2,4(1H,3H)-dione]
6 | > 10000 nM | 196 nM | CN1CCC(Cn2c(=O)n(Cc3ccc(-c4nnc(C(F)F)o4)cn3)c(=O)c3ccccc32)CC1 [Compound 15, 3-((5-(5-(difluoromethyl)-1,3,4-oxadiazole-2-yl)pyridine-2-yl)methyl)-1-((1-methylpiperidine-4-yl)methyl)quinazoline-2,4(1H,3H)-dione]
7 | > 10000 nM | 132 nM | Cn1c(=O)n(Cc2ccc(-c3nnc(C(F)F)o3)cn2)c(=O)c2ccccc21 [Compound 18, 3-((5-(5-(difluoromethyl)-1,3,4-oxadiazole-2-yl)pyridine-2-yl)methyl)-1-methylquinazoline-2,4(1H,3H)-dione]
8 | > 10000 nM | 158 nM | CC(C)(C)OC(=O)N1CCN(c2ccc3c(c2)C(C)(C)C(=O)N(Cc2ccc(-c4nnc(C(F)F)o4)cn2)C3=O)CC1 [Compound 25, tert-butyl 4-(2-((5-(5-(difluoromethyl)-1,3,4-oxadiazole-2-yl)pyridine-2-yl)methyl)-4,4-dimethyl-1,3-dioxo-1,2,3,4-tetrahydroisoquinoline-6-yl)piperazine-1-carboxylate]
9 | > 10000 nM | 22 nM | CC(C)N1CCN(c2ccc3c(c2)C(C)(C)C(=O)N(Cc2ccc(-c4nnc(C(F)F)o4)cn2)C3=O)CC1 [Compound 26, 2-((5-(5-(difluoromethyl)-1,3,4-oxadiazole-2-yl)pyridine-2-yl)methyl)-6-(4-isopropylpiperazine-1-yl)-4,4-dimethylisoquinoline-1,3(2H,4H)-dione]
10 | > 10000 nM | 25 nM | CN(C)[C@@H]1CCN(c2ccc3c(c2)C(C)(C)C(=O)N(Cc2ccc(-c4nnc(C(F)F)o4)cn2)C3=O)C1 [Compound 32, (R)-2-((5-(5-(difluoromethyl)-1,3,4-oxadiazole-2-yl)pyridine-2-yl)methyl)-6-(3-(dimethylamino)pyrrolidine-1-yl)-4,4-dimethylisoquinoline-1,3(2H,4H)-dione]

Further lines, the compound ahead of its results:

Row | SMILES | IC50 (HDAC1) | IC50 (HDAC6 human recombinant)
11 | O=C1c2ccccc2C(=O)N1Cc1ccc(-c2nnc(C(F)F)o2)cn1 [Compound 1, 2-((5-(5-(difluoromethyl)-1,3,4-oxadiazole-2-yl)pyridine-2-yl)methyl)isoindoline-1,3-dione] | > 10000 nM | 57 nM
12 | O=C1c2ccccc2C2(CCC2)C(=O)N1Cc1ccc(-c2nnc(C(F)F)o2)cc1 [Compound 5, 2′-(4-(5-(difluoromethyl)-1,3,4-oxadiazole-2-yl)benzyl)-1′H-spiro[cyclobutane-1,4′-isoquinoline]-1′,3′(2′H)-dione] | > 10000 nM | 513 nM
13 | CC1(C)C(=O)N(Cc2ccc(-c3nnc(C(F)F)o3)cc2F)C(=O)c2ccccc21 [Compound 7, 2-(4-(5-(difluoromethyl)-1,3,4-oxadiazole-2-yl)-2-fluorobenzyl)-4,4-dimethylisoquinoline-1,3(2H,4H)-dione] | > 10000 nM | 145 nM
14 | CC1(C)C(=O)N(Cc2ccc(-c3nnc(C(F)F)o3)cn2)C(=O)c2ccccc21 [Compound 8, 2-((5-(5-(difluoromethyl)-1,3,4-oxadiazole-2-yl)pyridine-2-yl)methyl)-4,4-dimethylisoquinoline-1,3(2H,4H)-dione] | > 10000 nM | 30 nM
15 | O=c1c2ccccc2n(CCN2CCCCC2)c(=O)n1Cc1ccc(-c2nnc(C(F)F)o2)cn1 [Compound 9, 3-((5-(5-(difluoromethyl)-1,3,4-oxadiazole-2-yl)pyridine-2-yl)methyl)-1-(2-(piperidine-1-yl)ethyl)quinazoline-2,4(1H,3H)-dione] | > 10000 nM | 126 nM
16 | O=c1c2ccccc2n(CCN2CCCCC2)c(=O)n1Cc1ccc(-c2nnc(C(F)F)o2)cc1 [Compound 11, 3-(4-(5-(difluoromethyl)-1,3,4-oxadiazole-2-yl)benzyl)-1-(2-(piperidine-1-yl)ethyl)quinazoline-2,4(1H,3H)-dione] | > 10000 nM | 1020 nM
17 | CC1(C)C(=O)N(Cc2ncc(-c3nnc(C(F)F)o3)cn2)C(=O)c2ccccc21 [Compound 12, 2-((5-(5-(difluoromethyl)-1,3,4-oxadiazole-2-yl)pyrimidine-2-yl)methyl)-4,4-dimethylisoquinoline-1,3(2H,4H)-dione] | > 10000 nM | 83 nM
18 | COc1ccc(Cn2c(=O)n(Cc3ccc(-c4nnc(C(F)F)o4)cn3)c(=O)c3ccccc32)cc1 [Compound 13, 3-((5-(5-(difluoromethyl)-1,3,4-oxadiazole-2-yl)pyridine-2-yl)methyl)-1-(4-methoxybenzyl)quinazoline-2,4(1H,3H)-dione] | > 10000 nM | 225 nM
19 | O=c1c2ccccc2n(CC2CCN(C3COC3)CC2)c(=O)n1Cc1ccc(-c2nnc(C(F)F)o2)cn1 [Compound 16, 3-((5-(5-(difluoromethyl)-1,3,4-oxadiazole-2-yl)pyridine-2-yl)methyl)-1-((1-(oxetan-3-yl)piperidine-4-yl)methyl)quinazoline-2,4(1H,3H)-dione] | > 10000 nM | 257 nM
20 | COCCn1c(=O)n(Cc2ccc(-c3nnc(C(F)F)o3)cn2)c(=O)c2ccccc21 [Compound 17, 3-((5-(5-(difluoromethyl)-1,3,4-oxadiazole-2-yl)pyridine-2-yl)methyl)-1-(2-methoxyethyl)quinazoline-2,4(1H,3H)-dione] | > 10000 nM | 165 nM
21 | CN(C)CCCn1c(=O)n(Cc2ccc(-c3nnc(C(F)F)o3)cn2)c(=O)c2ccccc21 [Compound 19, 3-((5-(5-(difluoromethyl)-1,3,4-oxadiazole-2-yl)pyridine-2-yl)methyl)-1-(3-(dimethylamino)propyl)quinazoline-2,4(1H,3H)-dione] | > 10000 nM | 249 nM
22 | O=c1c2ccccc2n(CCN2CCOCC2)c(=O)n1Cc1ccc(-c2nnc(C(F)F)o2)cn1 [Compound 20, 3-((5-(5-(difluoromethyl)-1,3,4-oxadiazole-2-yl)pyridine-2-yl)methyl)-1-(2-morpholinoethyl)quinazoline-2,4(1H,3H)-dione] | > 10000 nM | 159 nM
23 | O=c1c2ccccc2n(CCn2cccn2)c(=O)n1Cc1ccc(-c2nnc(C(F)F)o2)cn1 [Compound 21, 1-(2-(1H-pyrazole-1-yl)ethyl)-3-((5-(5-(difluoromethyl)-1,3,4-oxadiazole-2-yl)pyridine-2-yl)methyl)quinazoline-2,4(1H,3H)-dione] | > 10000 nM | 273 nM
24 | CN(C)CCn1c(=O)n(Cc2ccc(-c3nnc(C(F)F)o3)cn2)c(=O)c2ccccc21 [Compound 22, 3-((5-(5-(difluoromethyl)-1,3,4-oxadiazole-2-yl)pyridine-2-yl)methyl)-1-(2-(dimethylamino)ethyl)quinazoline-2,4(1H,3H)-dione] | > 10000 nM | 210 nM
25 | CC1(C)C(=O)N(Cc2ccc(-c3nnc(C(F)F)o3)cn2)C(=O)c2ccc(Br)cc21 [Compound 23, 6-bromo-2-((5-(5-(difluoromethyl)-1,3,4-oxadiazole-2-yl)pyridine-2-yl)methyl)-4,4-dimethylisoquinoline-1,3(2H,4H)-dione] | > 10000 nM | 65 nM
26 | CC1(C)C(=O)N(Cc2ccc(-c3nnc(C(F)F)o3)cn2)C(=O)c2ccc(N3CCOCC3)cc21 [Compound 24, 2-((5-(5-(difluoromethyl)-1,3,4-oxadiazole-2-yl)pyridine-2-yl)methyl)-4,4-dimethyl-6-morpholinoisoquinoline-1,3(2H,4H)-dione] | > 10000 nM | 21 nM
27 | CN1CCN(c2ccc3c(c2)C(C)(C)C(=O)N(Cc2ccc(-c4nnc(C(F)F)o4)cn2)C3=O)CC1 [Compound 29, 2-((5-(5-(difluoromethyl)-1,3,4-oxadiazole-2-yl)pyridine-2-yl)methyl)-4,4-dimethyl-6-(4-methylpiperazine-1-yl)isoquinoline-1,3(2H,4H)-dione] | > 10000 nM | 18 nM
28 | CC1(C)C(=O)N(Cc2ccc(-c3nnc(C(F)F)o3)cn2)C(=O)c2ccc(N3CCN(C4COC4)CC3)cc21 [Compound 30, 2-((5-(5-(difluoromethyl)-1,3,4-oxadiazole-2-yl)pyridine-2-yl)methyl)-4,4-dimethyl-6-(4-(oxetan-3-yl)piperazine-1-yl)isoquinoline-1,3(2H,4H)-dione] | > 10000 nM | 46 nM
29 | CN(C)[C@H]1CCN(c2ccc3c(c2)C(C)(C)C(=O)N(Cc2ccc(-c4nnc(C(F)F)o4)cn2)C3=O)C1 [Compound 31, (S)-2-((5-(5-(difluoromethyl)-1,3,4-oxadiazole-2-yl)pyridine-2-yl)methyl)-6-(3-(dimethylamino)pyrrolidine-1-yl)-4,4-dimethylisoquinoline-1,3(2H,4H)-dione] | > 10000 nM | 29 nM
